What all share (experiment): Saturation binding of ^125I-HEAT
Test [1] deals with T1, human α1A-AR D106A variant (Homo sapiens, UniProt P35348, D106A).
T1 construct: expressed in transfected cells; host or cells: COS-7, transient (calcium phosphate)
T1 sequence (P35348 1-466 D106A): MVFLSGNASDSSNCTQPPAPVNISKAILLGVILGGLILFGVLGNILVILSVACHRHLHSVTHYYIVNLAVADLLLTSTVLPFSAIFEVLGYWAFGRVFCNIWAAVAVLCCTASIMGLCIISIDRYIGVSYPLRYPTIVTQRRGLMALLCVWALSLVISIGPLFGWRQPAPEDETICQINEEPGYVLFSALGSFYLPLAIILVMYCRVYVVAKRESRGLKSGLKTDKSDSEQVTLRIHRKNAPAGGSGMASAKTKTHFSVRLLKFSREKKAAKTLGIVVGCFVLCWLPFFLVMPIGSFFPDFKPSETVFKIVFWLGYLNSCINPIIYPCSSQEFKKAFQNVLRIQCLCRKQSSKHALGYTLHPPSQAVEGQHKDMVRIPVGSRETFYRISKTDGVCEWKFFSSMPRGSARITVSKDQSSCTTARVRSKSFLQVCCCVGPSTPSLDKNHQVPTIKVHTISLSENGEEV

Test [2] concerns the target T2, human α1A-AR M292A variant (Homo sapiens, UniProt P35348, M292A).
T2 construct: expressed in transfected cells; host or cells: COS-7 (transient, calcium phosphate), membranes
T2 sequence (P35348 1-466 M292A): T1 sequence (P35348 1-466 D106A) with A106D, M292A

The target in test [3] is T3, human α1A-AR S188A/S192A (SS-AA) variant (Homo sapiens, UniProt P35348, S188A/S192A).
T3 construct: expressed in transfected cells; host or cells: COS-7, transient (calcium phosphate)
T3 sequence (P35348 1-466 S188A/S192A): T1 sequence (P35348 1-466 D106A) with A106D, S188A, S192A

Positions count from the first letter of the chain named.

Regarding `O=C1c2ccccc2CCC1CNCCc1ccc(O)c([125I])c1` (stereo not drawn) [125I-HEAT], the “^125I-HEAT Ratio (loss of affinity relative to WT)” value in test [1] (D106A) turned out to be 1.7; in test [2] (M292A), 2.2; in test [3] (SS-AA) it was 0.78. Also, the “^125I-HEAT pKd” value in test [1] (D106A (3.32), saturation binding, n = 3–6) was found to be 9.82±0.11; in test [2] (M292A (6.55), saturation binding, n = 3–6), 9.69±0.09; in test [3] (SS-AA (5.42–5.46), saturation binding, n = 3–6) it was 10.15±0.01.
